Results taken from ChEMBL document CHEMBL1124001, “Synthesis and antileukemic activity of bis[[(carbamoyl)oxy]methyl]- substituted pyrrolo[2,1-a]isoquinolines, pyrrolo[1,2-a]quinolines, pyrrolo[2,1-a]isobenzazepines, and pyrrolo[1,2-a]benzazepines” (J Med Chem, 1988).

Legend:
Mus musculus [1] = experiment: Net log cell kill was determined after injecting 7.5 mg/kg intraperitoneally in CD2F1 mice; assay type: functional; settings: route intraperitoneal
Mus musculus [2] = experiment: Ratio of treated to that of untreated tumor-bearing control animals at 7.5 mg/kg intraperitoneally in CD2F1 mice was determined; assay type: functional; settings: route intraperitoneal
Mus musculus [3] = experiment: Body weight change of test animals to that of control was determined after injection at 7.5 mg/kg intraperitoneally in CD2F1 mice; assay type: functional; settings: route intraperitoneal
Mus musculus [4] = experiment: Ratio of treated to that of untreated tumor-bearing control animals at 3.75 mg/kg intraperitoneally in CD2F1 mice was determined; assay type: functional; settings: route intraperitoneal
Mus musculus [5] = experiment: Toxicity day survivors was determined by the ratio of animals survived to that of test animals at 60 mg/kg intraperitoneally in CD2F1 mice; 0/6; assay type: organism-based; set-up: dose 60 mg/kg, route intraperitoneal; settings: in vivo, ip
Mus musculus [6] = experiment: Toxicity day survivors was determined by the ratio of animals survived to that of test animals at 30 mg/kg intraperitoneally in CD2F1 mice; 6/6; assay type: organism-based; set-up: dose 30 mg/kg, route intraperitoneal; settings: in vivo, ip
Mus musculus [7] = experiment: Body weight change of test animals to that of control was determined after injection at 1.87 mg/kg intraperitoneally in CD2F1 mice; assay type: functional; settings: route intraperitoneal
Mus musculus [8] = experiment: Ratio of treated to that of untreated tumor-bearing control animals at 1.87 mg/kg intraperitoneally in CD2F1 mice was determined; assay type: functional; settings: route intraperitoneal
Mus musculus [9] = experiment: Net log cell kill was determined after injecting 1.87 mg/kg intraperitoneally in CD2F1 mice; assay type: functional; settings: route intraperitoneal
Mus musculus [10] = experiment: Toxicity day survivors was determined by the ratio of animals survived to that of test animals at 1.87 mg/kg intraperitoneally in CD2F1 mice; 5/5; assay type: organism-based; set-up: dose 1.87 mg/kg, route intraperitoneal; settings: in vivo, ip
Mus musculus [11] = experiment: Body weight change of test animals to that of control was determined after injection at 30 mg/kg intraperitoneally in CD2F1 mice; assay type: functional; settings: route intraperitoneal
Mus musculus [12] = experiment: Body weight change of test animals to that of control was determined after injection at 3.75 mg/kg intraperitoneally in CD2F1 mice; assay type: functional; settings: route intraperitoneal
Mus musculus [13] = experiment: Ratio of treated to that of untreated tumor-bearing control animals at 30 mg/kg intraperitoneally in CD2F1 mice was determined; assay type: functional; settings: route intraperitoneal
Mus musculus [14] = experiment: Body weight change of test animals to that of control was determined after injection at 15 mg/kg intraperitoneally in CD2F1 mice; assay type: functional; settings: route intraperitoneal
Mus musculus [15] = experiment: Ratio of treated to that of untreated tumor-bearing control animals at 15 mg/kg intraperitoneally in CD2F1 mice was determined; assay type: functional; settings: route intraperitoneal
Mus musculus [16] = experiment: Net log cell kill was determined after injecting 3.75 mg/kg intraperitoneally in CD2F1 mice; assay type: functional; settings: route intraperitoneal
Mus musculus [17] = experiment: Toxicity day survivors was determined by the ratio of animals survived to that of test animals at 7.5 mg/kg intraperitoneally in CD2F1 mice; 4/4; assay type: organism-based; set-up: dose 7.5 mg/kg, route intraperitoneal; settings: in vivo, ip
Mus musculus [18] = experiment: Toxicity day survivors was determined by the ratio of animals survived to that of test animals at 3.75 mg/kg intraperitoneally in CD2F1 mice; 5/5; assay type: organism-based; set-up: dose 3.75 mg/kg, route intraperitoneal; settings: in vivo, ip
Mus musculus [19] = experiment: Toxicity day survivors was determined by the ratio of animals survived to that of test animals at 15 mg/kg intraperitoneally in CD2F1 mice; 4/4; assay type: organism-based; set-up: dose 15 mg/kg, route intraperitoneal; settings: in vivo, ip
Mus musculus [20] = experiment: Net log cell kill was determined after injecting 15 mg/kg intraperitoneally in CD2F1 mice; assay type: functional; settings: route intraperitoneal
Mus musculus [21] = experiment: Net log cell kill was determined after injecting 30 mg/kg intraperitoneally in CD2F1 mice; assay type: functional; settings: route intraperitoneal
Mus musculus [22] = experiment: Toxicity day survivors was determined by the ratio of animals survived to that of test animals at 7.5 mg/kg intraperitoneally in CD2F1 mice; 6/6; assay type: organism-based; set-up: dose 7.5 mg/kg, route intraperitoneal; settings: in vivo, ip
Mus musculus [23] = experiment: Toxicity day survivors was determined by the ratio of animals survived to that of test animals at 15 mg/kg intraperitoneally in CD2F1 mice; 0/6; assay type: organism-based; set-up: dose 15 mg/kg, route intraperitoneal; settings: in vivo, ip
Mus musculus [24] = experiment: Toxicity day survivors was determined by the ratio of animals survived to that of test animals at 3.75 mg/kg intraperitoneally in CD2F1 mice; 6/6; assay type: organism-based; set-up: dose 3.75 mg/kg, route intraperitoneal; settings: in vivo, ip
Mus musculus [25] = experiment: Toxicity day survivors was determined by the ratio of animals survived to that of test animals at 1.87 mg/kg intraperitoneally in CD2F1 mice; 6/6; assay type: organism-based; set-up: dose 1.87 mg/kg, route intraperitoneal; settings: in vivo, ip

Row | SMILES | KE (Mus musculus [1]) | T/C (Mus musculus [2]) [%] | T-C (Mus musculus [3]) [g] | T/C (Mus musculus [4]) [%] | T-C (Mus musculus [7]) [g] | T/C (Mus musculus [8]) [%] | KE (Mus musculus [9]) | T-C (Mus musculus [12]) [g] | KE (Mus musculus [16]) | also measured
1 | COc1ccc2c(c1)CCc1c(COC(=O)NC(C)C)c(COC(=O)NC(C)C)c(C)n1-2 | -1.31 | 116 | -2.9 | 105 | -0.6 | 97 | -1.56 | -0.8 | -1.45 | TDS (Mus musculus [5]): 0; TDS (Mus musculus [6]): 6; TDS (Mus musculus [10]): 5; T-C (Mus musculus [11]): -4.2 g; T/C (Mus musculus [13]): 160%; T-C (Mus musculus [14]): -6.5 g; T/C (Mus musculus [15]): 150%; TDS (Mus musculus [17]): 4; TDS (Mus musculus [18]): 5; TDS (Mus musculus [19]): 4; KE (Mus musculus [20]): 1.43; KE (Mus musculus [21]): 1.51
2 | Cc1c(COC(=O)NC(C)C)c(COC(=O)NC(C)C)c2n1-c1ccccc1CC2 | -1.64 | 94 | -2.8 | 155 | -1.5 | 134 | -0.14 | -3.6 | 1.47 | TDS (Mus musculus [22]): 6; TDS (Mus musculus [23]): 0; TDS (Mus musculus [24]): 6; TDS (Mus musculus [25]): 6
